From the NIST ThermoML archive (doi:10.1016/j.tca.2015.10.001)
Numbers after ± are expanded uncertainties.

What was measured:
[1] = Crystal; DTA
[2] = Molar enthalpy of transition or fusion; conditions: Crystal; DSC

- Normal melting temperature [1]: 28.40 ± 4 °C
- Molar enthalpy of transition or fusion [2]: 13.8 ± 0.86 kcal/mol
Compound: CCCCCCCCCCCCCCCCCC [octadecane]
